Data: PubChem BioAssay AID330 (DTP/NCI, 2004)
Values joined by “and” are separate entries in the source; they are usually repeats but may differ in a detail not shown here. Equal entries are not always repeated. Toxic doses and inconclusive results are not listed. The calls were made as follows: active = survival T/C of 150% or more; inactive = T/C below 125% in these data.

System: P388 leukemia ip, CD2F1 mice, survival T/C
Test: NCI In Vivo Anticancer Drug Screen. Data for tumor model P388 Leukemia (intraperitoneal) in CD2F1 (CDF1) mice
Settings: endpoint: median survival time, higher = longer survival
Outline: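 Mice carrying the transplanted tumor received test compound or vehicle. Survival was recorded in each group, and the value is the treated-group measurement divided by that of the vehicle-treated control group.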

[1] = dose: 25.0 mg/kg/injection, schedule: Q01DX009 (ip), vehicle: Klucel (hydroxypropylcellulose) (HPC)
[2] = dose: 50.0 mg/kg/injection, schedule: Q01DX009 (ip), vehicle: Klucel (hydroxypropylcellulose) (HPC)
[3] = dose: 100.0 mg/kg/injection, schedule: Q01DX009 (ip), vehicle: Klucel (hydroxypropylcellulose) (HPC)
[4] = dose: 200.0 mg/kg/injection, schedule: Q01DX009 (ip), vehicle: Klucel (hydroxypropylcellulose) (HPC)
[5] = dose: 50.0 mg/kg/injection, schedule: Q01DX005 (ip), vehicle: saline with Tween-80
[6] = dose: 100.0 mg/kg/injection, schedule: Q01DX005 (ip), vehicle: saline with Tween-80
[7] = dose: 200.0 mg/kg/injection, schedule: Q01DX005 (ip), vehicle: saline with Tween-80
[8] = dose: 50.0 mg/kg/injection, schedule: Q01DX009 (ip), vehicle: saline
[9] = dose: 100.0 mg/kg/injection, schedule: Q01DX009 (ip), vehicle: saline
[10] = dose: 200.0 mg/kg/injection, schedule: Q01DX009 (ip), vehicle: saline
[11] = dose: 6.25 mg/kg/injection, schedule: Q01DX009 (ip), vehicle: Klucel (hydroxypropylcellulose) (HPC)
[12] = dose: 12.5 mg/kg/injection, schedule: Q01DX009 (ip), vehicle: Klucel (hydroxypropylcellulose) (HPC)
[13] = dose: 60.0 mg/kg/injection, schedule: Q01DX005 (ip), vehicle: saline with Tween-80
[14] = dose: 120.0 mg/kg/injection, schedule: Q01DX005 (ip), vehicle: saline with Tween-80
[15] = dose: 240.0 mg/kg/injection, schedule: Q01DX005 (ip), vehicle: saline with Tween-80
[16] = dose: 100.0 mg/kg/injection, schedule: Q01DX001 (ip), vehicle: saline with Tween-80
[17] = dose: 200.0 mg/kg/injection, schedule: Q01DX001 (ip), vehicle: saline with Tween-80
[18] = dose: 400.0 mg/kg/injection, schedule: Q01DX009 (ip), vehicle: Klucel (hydroxypropylcellulose) (HPC)
[19] = dose: 12.5 mg/kg/injection, schedule: Q01DX005 (ip), vehicle: Klucel (hydroxypropylcellulose) (HPC)
[20] = dose: 50.0 mg/kg/injection, schedule: Q01DX005 (ip), vehicle: Klucel (hydroxypropylcellulose) (HPC)
[21] = dose: 100.0 mg/kg/injection, schedule: Q01DX005 (ip), vehicle: Klucel (hydroxypropylcellulose) (HPC)

Measured: T/C

COC1/C=C\OC2(C)Oc3c(C)c(O)c4c(c3C2=O)C(=O)C(Br)=C(NC(=O)/C(C)=C\C=C/C(C)C(O)C(C)C(O)C(C)C(OC(C)=O)C1C)C4=O (centres undefined)
inactive: [1] 102 % of control | [2] 97 % of control | [3] 102 % of control | [4] 100 % of control

CCN(CC)C(=S)Cl
inactive: [5] 107 % of control | [6] 106 % of control | [7] 101 % of control

CCOc1ccc2c(=O)c(C(=O)O)c[nH]c2c1
inactive: [8] 107 % of control | [9] 107 % of control | [10] 108 % of control

CCCCNC1(N(C)C)N=C(N(C)C)N=C(N(C)C)O1 (centres undefined)
inactive: dose: 50.0 mg/kg/injection, schedule: Q01DX005 (ip), vehicle: saline 88 % of control | dose: 100.0 mg/kg/injection, schedule: Q01DX005 (ip), vehicle: saline 89 % of control | dose: 200.0 mg/kg/injection, schedule: Q01DX005 (ip), vehicle: saline 95 % of control

CCCCCCCCCCCCCCCC[N+]1(CC)CCOCC1 (tested in a mixture with another compound)
inactive: dose: 3.13 mg/kg/injection, schedule: Q01DX009 (ip), vehicle: Klucel (hydroxypropylcellulose) (HPC) 96 % of control | [11] 113 % of control | [12] 115 % of control

O=S(=O)(Nc1ccccc1F)c1ccc(F)cc1
inactive: [13] 106 % of control | [14] 100 % of control | [15] 106 % of control

Cc1cc(=O)oc2c(C)c3occc(=O)c3cc12
inactive: [16] 99 % of control | [17] 90 % of control | dose: 400.0 mg/kg/injection, schedule: Q01DX001 (ip), vehicle: saline with Tween-80 87 % of control

CN(C)c1ccc(/C=C/c2ccnc3ccccc23)c(F)c1
inactive: [8] 86 % of control | [9] 92 % of control | [10] 86 % of control

CCOC(=O)Nc1cc2c(c(N)n1)N=C(c1ccccc1)CN2C
inactive: dose: 12.5 mg/kg/injection, schedule: Q01DX001 (ip), vehicle: saline with Tween-80 111 % of control | dose: 25.0 mg/kg/injection, schedule: Q01DX001 (ip), vehicle: saline with Tween-80 101 % of control | dose: 50.0 mg/kg/injection, schedule: Q01DX001 (ip), vehicle: saline with Tween-80 111 % of control and 97 % of control | [16] 112 % of control | [17] 106 % of control

O=c1c2ncn(C3OC(CO)C(O)C3O)c2nc2n(C3OC(CO)C(O)C3O)cnn12 (centres undefined)
inactive: dose: 60.0 mg/kg/injection, schedule: Q01DX005 (ip), vehicle: saline 109 % of control | dose: 120.0 mg/kg/injection, schedule: Q01DX005 (ip), vehicle: saline 117 % of control | dose: 240.0 mg/kg/injection, schedule: Q01DX005 (ip), vehicle: saline 122 % of control

C[n+]1ccc(Nc2ccc(O)cc2)c2ccc(Cl)cc21
inactive: dose: 12.5 mg/kg/injection, schedule: Q04DX003 (ip), vehicle: Klucel (hydroxypropylcellulose) (HPC) 100 % of control | dose: 25.0 mg/kg/injection, schedule: Q04DX003 (ip), vehicle: Klucel (hydroxypropylcellulose) (HPC) 116 % of control and 92 % of control | dose: 50.0 mg/kg/injection, schedule: Q01DX005 (ip), vehicle: saline + Tween-80 + alcohol 112 % of control | dose: 50.0 mg/kg/injection, schedule: Q04DX003 (ip), vehicle: Klucel (hydroxypropylcellulose) (HPC) 101 % of control and 95 % of control | dose: 100.0 mg/kg/injection, schedule: Q01DX005 (ip), vehicle: saline + Tween-80 + alcohol 110 % of control | dose: 100.0 mg/kg/injection, schedule: Q04DX003 (ip), vehicle: Klucel (hydroxypropylcellulose) (HPC) 109 % of control and 112 % of control | dose: 200.0 mg/kg/injection, schedule: Q01DX005 (ip), vehicle: saline + Tween-80 + alcohol 114 % of control | dose: 200.0 mg/kg/injection, schedule: Q04DX003 (ip), vehicle: Klucel (hydroxypropylcellulose) (HPC) 120 % of control and 94 % of control

Nc1cccc2c1C(O)c1ccccc1-2 (centres undefined)
inactive: [5] 95 % of control | [6] 99 % of control | [7] 90 % of control

Cc1ccc(S(=O)(=O)OCCN(CCOS(=O)(=O)c2ccc(C)cc2)S(=O)(=O)c2ccc(C)cc2)cc1
inactive: [2] 108 % of control | [3] 100 % of control | [4] 102 % of control | [18] 95 % of control

O=[N+]([O-])c1ccccc1NN=NCCF
inactive: dose: 3.12 mg/kg/injection, schedule: Q01DX005 (ip), vehicle: Klucel (hydroxypropylcellulose) (HPC) 100 % of control | dose: 6.25 mg/kg/injection, schedule: Q01DX005 (ip), vehicle: Klucel (hydroxypropylcellulose) (HPC) 100 % of control | [19] 109 % of control

COC(=O)C1=CO[C@@H](C)[C@@H]2CN3CCc4c([nH]c5ccc(OC)cc45)[C@@H]3C[C@H]12
inactive: [5] 106 % of control | [6] 101 % of control | [7] 105 % of control

Clc1ccc(-c2nnc(-c3ccccc3)o2)cc1Cl
inactive: [2] 112 % of control | [3] 105 % of control | [4] 112 % of control | [18] 100 % of control

CN(O)C(=O)CCCCCCCCC(=O)N(C)O
inactive: [13] 103 % of control | [14] 105 % of control | [15] 114 % of control

CCOC(=O)c1sc(=S)n(C)c1C
inactive: dose: 12.5 mg/kg/injection, schedule: Q01DX005 (ip), vehicle: saline with Tween-80 100 % of control | dose: 25.0 mg/kg/injection, schedule: Q01DX005 (ip), vehicle: saline with Tween-80 103 % of control | [5] 102 % of control and 104 % of control

CCOC(=O)N1c2ccccc2C(c2ccccc2)=NC1(C#N)CC (centres undefined)
inactive: [5] 96 % of control | [6] 96 % of control | [7] 97 % of control

CN(C)CCO/N=C1/CC[C@H]2[C@@H]3CC[C@H]4C[C@H](O)CC[C@]4(C)[C@H]3CC[C@]12C
inactive: [19] 104 % of control | dose: 25.0 mg/kg/injection, schedule: Q01DX005 (ip), vehicle: Klucel (hydroxypropylcellulose) (HPC) 95 % of control | [20] 95 % of control

COc1cc(-c2n[nH]c(=O)o2)cc(OC)c1OC
inactive: [2] 105 % of control | [3] 100 % of control | [4] 105 % of control

COC(=O)c1ccccc1NC(=O)Nc1ncccn1
inactive: [2] 100 % of control | [3] 100 % of control | [4] 96 % of control

COC(=O)c1ccc(C(=S)SC)cc1
inactive: dose: 100.0 mg/kg/injection, schedule: Q04DX002 (ip), vehicle: saline 100 % of control | dose: 200.0 mg/kg/injection, schedule: Q04DX002 (ip), vehicle: saline 100 % of control | dose: 400.0 mg/kg/injection, schedule: Q04DX002 (ip), vehicle: saline 99 % of control

CCCCCCN1CCN(Cc2ccc(N(CC)CC)cc2)C(=O)C1=O
inactive: [20] 91 % of control | [21] 100 % of control | dose: 200.0 mg/kg/injection, schedule: Q01DX005 (ip), vehicle: Klucel (hydroxypropylcellulose) (HPC) 105 % of control

Nc1nc(N)c(-c2ccc(Cl)c(Cl)c2)c(CP(Cl)(Cl)(Cl)Br)n1
inactive: [11] 96 % of control | [12] 104 % of control | [1] 109 % of control | [2] 114 % of control

CC(C)(O)C1C2OC(=O)C1C1(O)CC3OC34C(=O)OC2C14C (centres undefined)
inactive: dose: 12.5 mg/kg/injection, schedule: Q01DX009 (ip), vehicle: saline with Tween-80 100 % of control | dose: 25.0 mg/kg/injection, schedule: Q01DX009 (ip), vehicle: saline with Tween-80 100 % of control | dose: 33.0 mg/kg/injection, schedule: Q04DX003 (ip), vehicle: saline with Tween-80 104 % of control | dose: 50.0 mg/kg/injection, schedule: Q01DX009 (ip), vehicle: saline with Tween-80 100 % of control | dose: 50.0 mg/kg/injection, schedule: Q04DX003 (ip), vehicle: saline with Tween-80 109 % of control

C=C(C)C(=NC)NC(C)(C)C
inactive: [20] 100 % of control | [21] 102 % of control

COC(=O)c1cc([O-])c2sc(C)c(C)[n+]2n1
inactive: [13] 100 % of control | [14] 100 % of control | [15] 100 % of control

CC(=O)CC(=O)Nc1ccccc1
inactive: dose: 12.5 mg/kg/injection, schedule: Q01DX009 (ip), vehicle: saline 105 % of control | dose: 25.0 mg/kg/injection, schedule: Q01DX009 (ip), vehicle: saline 94 % of control | [8] 88 % of control
